This is an account of results in patent US9192610B2, “Use of quinazoline derivatives for neurodegenerative diseases” (CONSEJO SUPERIOR DE INVESTIGACIONES CIENTIFICAS, priority 2009, dated 2015).

The first data set is described as follows: Antioxidant effect, ORAC-FL method (capacity to capture free radicals). The note with it: 75 mM phosphate buffer pH 7.4, 37° C., compounds tested at 4 concentrations. The source says: Given that in many neurodegenerative diseases neuronal death occurs due to oxidative stress, the capacity of these compounds to capture free radicals has been evaluated using the ORAC methodology.
Determination is following the ORAC-FL method of Ou et al. partially adapted by BMG LABTECH (BMG LABTECH Application note 148 (2006): ORAC Assay on the FLUOstar OPTIMA to Determine Antioxidant Capacity. http://www.bmglabtech.com/application-notes/fluorescence-intensity/orac 148.cfm). The FLUOstar Optima (BMG Labtechnologies GmbH, Offenburg, Germany) plate reader was used with an excitation filter at 485 nm excitation and 520 nm emission. 2,2′-Azobis-(amidinopropane) dihydrochloride (AAPH), (±)-6-hydroxy-2,5,7,8-tetramethylchromane-2-carboxylic acid (trolox) and fluorescein (FL) are purchased from Sigma-Aldrich. The reaction is carried out in 75 mM phosphate buffer (pH 7.4) and a final reaction volume of 200 μL. The antioxidant (25 μL) and fluorescein (150 μL; 10 nM) are placed on black 96-well plates (96F untreat, Nunc™). The mixture is pre-incubated during 30 minutes at 37° C. afterwards rapidly adding a solution of AAPH (25 μL, 240 mM), using a multi-channel pipette. The microplate is rapidly placed on the reader and fluorescence is measured every 90 sec during 90 min. The 96-well plate is agitated automatically before each reading. The compounds are tested at 4 different concentrations (10-1 μ). A blank is also placed (FL+AAPH in phosphate buffer) and as reference compound four concentrations of trolox (10-1 μM). All reactions are carried out in duplicate, and at least three different tests per compound. Data are exported to an Excel spreadsheet (Microsoft), representing absorbance versus time and subsequently the area under curve is calculated following the formula (1) AUC=f1/f0+fi/f0+ . . . +f34/f0+(f35/f0) wherein: AUC=area under curve • f0=fluorescence measured at time 0 • fi=fluorescence measured at time t
The net AUC values of each compound are determined by subtracting from the AUC value of the compound the AUC value of the blank (FL+AAPH in phosphate buffer).
The measurement of antioxidant is expressed in trolox equivalents. Relative trolox equivalents are calculated according to formula (2): […]
Take `O=c1c2ccccc2[nH]c(=S)n1-c1ccccc1` [Comp. 1, 3-phenyl-4-oxo-2-thioxo-1,2,3,4-tetrahydroquinazoline]: the “Antioxidant capacity, Trolox equivalents” value turned out to be 1.19 Trolox equivalents. The same measure, in the same setting: under `O=c1c2ccccc2[nH]c(=S)n1-c1c(F)cccc1F` [Comp. 2, 3-(2,6-difluorophenyl)-4-oxo-2-thioxo-1,2,3,4-tetrahydroquinazoline] stands “Not to 10 μM”. Still for that read-out and setting: to `Cc1cccc2c(=O)n(-c3ccccc3Br)c(=S)[nH]c12` [Comp. 3, 3-(2-bromophenyl)-8-methyl-4-oxo-2-thioxo-1,2,3,4-tetrahydroquinazoline] belongs 1.31 Trolox equivalents; to `CSc1nc2c(C)cccc2c(=O)n1-c1c(F)cccc1F` [Comp. 4, 3-(2,6-difluorophenyl)-8-methyl-2-methylthio-4-oxo-3,4-dihydroquinazoline], 0.13 Trolox equivalents. In the case of `CSc1nc2c(C)cccc2c(=O)n1-c1ccccc1Br` [Comp. 5, 3-(2-bromophenyl)-8-methyl-2-methylthio-4-oxo-3,4-dihydroquinazoline], the “Antioxidant capacity, Trolox equivalents” value is reported as “Not to 10 μM”. The same measure, in the same setting: under `S=c1[nH]c2ccccc2c(=S)n1-c1ccccc1` [Comp. 6, 3-phenyl-2,4-dithioxo-1,2,3,4-tetrahydroquinazoline] stands 0.46 Trolox equivalents; under `CSc1nc2ccccc2c(=S)n1-c1ccccc1` [Comp. 7, 3-phenyl-2-methylthio-4-thioxo-3,4-dihydroquinazoline], 0.37 Trolox equivalents.

Assay in a further data set: not given
The conditions noted are these: commercial drugs used to validate the PAMPA assay; literature value; cited from earlier work.
For the molecule `CCn1cc(C(=O)O)c(=O)c2cc(F)c(N3CCNCC3)nc21` [Enoxacine], the “Bibliography (described permeability)” value was 1.8. Regarding `CN(C)CCCN1c2ccccc2Sc2ccccc21` [Promazine], the “Bibliography (described permeability)” value was 8.1.
